Values quoted from earlier work as cited in patent US10011570B2, “Nucleic acid binding dyes with improved safety” (Biotium, Inc., priority 2013, dated 2018).

System: cellular mutation caused by UV light or other known mutagens
Conditions: cited from earlier work

CCCN(CCCN(C)C)c1cc(/C=C2/Sc3ccccc3N2C)c2ccccc2[n+]1-c1ccccc1 [SYBR Green]
effect on cellular mutation caused by UV light or other known mutagens: can worsen cellular mutation
power in worsening mutation relative to ethidium bromide: ~100 times
